Usually IC50 stands for the concentration needed to halve the response being measured. A high value points to lower potency. As usually defined, the melting point is the temperature of the solid-liquid transition.

The test system of one series is HCC cells SNU398. The experiment in a line: CCK-8 cell proliferation assay, SNU398 cells. Conditions: for IC50: Homo sapiens, SNU-398, SNU398 cells (high RECQL4 expression), 48 h culture, CCK-8, OD 450 nm, Mean ± S.E.M; for IC50 on HCC cells SNU398 compared with IC50 on hepatocytes LO2 (selectivity in words): SNU398 versus LO2, CCK-8, 48 h. The format is cell-based. As for the experimental part:
(§1) The effects of the above-prepared rhein amide derivatives on cell proliferation were detected by a CCK-8 kit.
(§2) The CCK-8 kit can evaluate a proliferation activity of cells by detecting an absorbance at a 450 nm wavelength. SNU398 and LO2 cells were digested to obtain a cell suspension, the cell suspension was diluted with a medium to a density of about 5×10^3 cells/well, 100 µl of cell liquid was added to each well, and a blank group and a negative control group were set up. About 1.0000 mg of the derivative was added in a 0.5 mL EP tube, mixed with dimethyl sulfoxide (DMSO) to prepare a 5×10^-2 M stock solution, and stored at -20° C.
(§3) The stock solutions of 21 compounds prepared in the examples and comparative examples were diluted to final concentrations of 100 µmol/L, 20 µmol/L, 4 µmol/L, 0.8 µmol/L, and 0.16 µmol/L separately using a concentration gradient stepwise dilution method. An original medium in a 96-well plate was discarded by aspiration, 100 µl of the dilutions of the 17 compounds were added to the 96-well plate, and three parallel wells were set up. The dilutions were culture in a cell culture incubator for 48 h. […] A stronger inhibitory ability led to a lower IC50 value, and results were listed in Table 1; statistical analysis and drawing of experimental data was conducted using Graphpad-prism 6.0 software, and a mean ± standard deviation was expressed as (Mean ± S.E.M).
A general note: Tetrazolium assays rely on reduction of a dye to a coloured formazan, in cell work by metabolically active cells.

A further series relates to hepatocytes LO2. The experiment in a line: CCK-8 cell proliferation assay, LO2 cells. The class given is cell-based. Conditions: Hepatocyte, 48 h culture, CCK-8, OD 450 nm, Mean ± S.E.M. As for the experimental part: as §1, §2, §3

`CCOC(=O)C(NC(=O)c1cc(O)c2c(c1)C(=O)c1cccc(O)c1C2=O)C(C)CC` (centres unmarked) [Comparative Example 4] returned a melting point of 167 to 167.5 °C. Also, the half-maximal inhibitory concentration (IC50) with HCC cells SNU398 was determined as 47.1 ± 11.5 µM. In the series with hepatocytes LO2, this molecule returned a half-maximal inhibitory concentration (IC50) of 18.2 ± 1.56 µM.
In turn, `CCOC(=O)C(CC(C)C)NC(=O)c1cc(O)c2c(c1)C(=O)c1cccc(O)c1C2=O` (centres unmarked) [Comparative Example 3, ethyl(4,5-dihydroxy-9,10-dioxo-9,10-dihydroanthracene-2-carbonyl)leucinate] registered a melting point of 167.9 to 170 °C. In the series on HCC cells SNU398, this molecule came in with an IC50 of 188 ± 94.4 µM. Besides, the IC50 in the series on hepatocytes LO2 came out at 57.1 ± 3.25 µM.
In the same order, the values of `COc1ccc(CNC(=O)c2cc(O)c3c(c2)C(=O)c2cccc(O)c2C3=O)cc1` [Comparative Example 9, 4,5-dihydroxy-N-(4-methoxybenzyl)-9,10-dioxy-9,10-dihydroanthracene-2-carboxamide] are 244.5 to 249.4 °C, 111 ± 12.5 µM and 106 ± 9.72 µM.
Turning to `CCOC(=O)C(NC(=O)c1cc(O)c2c(c1)C(=O)c1cccc(O)c1C2=O)C(C)C` (centres unmarked) [Comparative Example 7, ethyl(4,5-dihydroxy-9,10-dioxo-9,10-dihydroanthracene-2-carbonyl)valerate], the melting point lay in the range of 202.1 to 202.7 °C. The IC50 in the series on HCC cells SNU398 was 161 ± 4.53 µM. Also, 13.7 ± 0.89 µM corresponded to half-maximal inhibition in the series on hepatocytes LO2 (IC50).
On to `CC(=O)c1ccc(N2CCN(C(=O)c3cc(O)c4c(c3)C(=O)c3cccc(O)c3C4=O)CC2)cc1` [Comparative Example 10, 3-(4-(4-acetylphenyl)piperazin-1-carbonyl)-1,8-dihydroxyanthracene-9,10-dione], for which the melting point was 270.1 to 272.2 °C. The half-inhibitory concentration (IC50) in the series on HCC cells SNU398 worked out at 222 ± 18.7 µM. In the series on hepatocytes LO2, this molecule showed an IC50 of 104 ± 9.96 µM.
`CCCNC(=O)c1cc(O)c2c(c1)C(=O)c1cccc(O)c1C2=O` [Example 5, 4,5-dihydroxy-9,10-dioxo-n-propyl-9,10-dihydroanthracene-2-carboxamide] gave a melting point of 264.1 to 265 °C. Moreover, half-maximal inhibition with HCC cells SNU398 (IC50) required 116 ± 5.25 µM. Also, the IC50 in the series with hepatocytes LO2 worked out at 228 ± 10.8 µM.
As for `COC(=O)C(C)NC(=O)c1cc(O)c2c(c1)C(=O)c1cccc(O)c1C2=O` (centres unmarked) [Example 1, methyl(4,5-dihydroxy-9,10-dioxy-9,10-dihydroanthracene-2-carbonyl) alaninate], the melting point was in the range of 236.3 to 237.9 °C. Besides, in the series with HCC cells SNU398, the IC50 came to 0.46 ± 0.08 µM and the “IC50 on HCC cells SNU398 compared with IC50 on hepatocytes LO2 (selectivity in words)” value (from here on “IC50 … (selectivity in words)”) is on record as “much smaller than the IC50 on hepatocytes LO2”. The molecule also gave a 50% inhibitory concentration (IC50) in the series on hepatocytes LO2 of 5.41 µM.
As for `CCOC(=O)CCC(NC(=O)c1cc(O)c2c(c1)C(=O)c1cccc(O)c1C2=O)C(=O)OCC` (centres unmarked) [Example 3, diethyl(4,5-dihydroxy-9,10-dioxo-9,10-dihydroanthracene-2-carbonyl) glutamate], the melting point was in the range of 202 to 202.3 °C. Also, the IC50 in the series with HCC cells SNU398 came out at 66.8 ± 2.21 µM. The IC50 in the series on hepatocytes LO2 was 114 ± 4.11 µM.
The molecule `CCCCNC(=O)c1cc(O)c2c(c1)C(=O)c1cccc(O)c1C2=O` [Example 6, N-butyl-4,5-dihydroxy-9,10-dioxy-9,10-dihydroanthracene-2-carboxamide] gave a melting point of 215.2 to 215.9 °C. Also, in the series on HCC cells SNU398, the IC50 turned out to be 5.85 ± 0.49 µM and the “IC50 … (selectivity in words)” value is given as “much smaller than the IC50 on hepatocytes LO2”. In the series on hepatocytes LO2, the IC50 came to 113 ± 8.56 µM.
The molecule `CCOC(=O)C(CCSC)NC(=O)c1cc(O)c2c(c1)C(=O)c1cccc(O)c1C2=O` (centres unmarked) [Comparative Example 6, ethyl(4,5-dihydroxy-9,10-dioxo-9,10-dihydroanthracene-2-carbonyl)methioninate] yielded a melting point of 177.2 to 178 °C. In the series on HCC cells SNU398, this molecule yielded an IC50 of 19.8 ± 1.23 µM. In the series with hepatocytes LO2, it took 7.77 ± 0.45 µM to reach half-maximal inhibition (IC50).
In turn, `CCOC(=O)C(Cc1ccccc1)NC(=O)c1cc(O)c2c(c1)C(=O)c1cccc(O)c1C2=O` (centres unmarked) [Comparative Example 5, ethyl (4,5-dihydroxy-9,10-dioxy-9,10-dihydroanthracene-2-carbonyl) phenylalaninate] came in with a melting point of 171 to 172.7 °C. This molecule displayed an IC50 in the series with HCC cells SNU398 of 166 ± 7.62 µM. This molecule showed an IC50 in the series with hepatocytes LO2 of 228 ± 7.25 µM.
For `CC(C)CNC(=O)c1cc(O)c2c(c1)C(=O)c1cccc(O)c1C2=O` [Comparative Example 8, 4,5-dihydroxy-N-isobutyl-9,10-dioxy-9,10-dihydroanthracene-2-carboxamide], half-maximal inhibition with hepatocytes LO2 (IC50) was put at 118 ± 12.3 µM.
As for `CCC(C)C(NC(=O)c1cc(O)c2c(c1)C(=O)c1cccc(O)c1C2=O)C(=O)OC` (centres unmarked) [Comparative Example 2, methyl 2-(4,5-dihydroxy-9,10-dioxy-9,10-dihydroanthracene-2-carboxamide)-3-methylvalerate], the melting point was 179.7 to 182.3 °C. The molecule further yielded an IC50 with HCC cells SNU398 of 470 ± 84.2 µM. The molecule further displayed a concentration for half-maximal inhibition (IC50) in the series with hepatocytes LO2 of 80.4 ± 2.36 µM.
In turn, `CCOC(=O)C(CC)NC(=O)c1cc(O)c2c(c1)C(=O)c1cccc(O)c1C2=O` (centres unmarked) [Example 2, ethyl 2-(4,5-dihydroxy-9,10-dioxy-9,10-dihydroanthracene-2-carboxamide)butanoate] yielded a melting point of 196.7 to 197.2 °C. Also, in the series with HCC cells SNU398, the half-maximal inhibitory concentration (IC50) stood at 8.81 ± 0.78 µM and the “IC50 … (selectivity in words)” value is listed as “much smaller than the IC50 on hepatocytes LO2”. For the same molecule, the half-inhibitory concentration (IC50) with hepatocytes LO2 stood at 104 ± 9.36 µM.
Molecule `CCOC(=O)CC(NC(=O)c1cc(O)c2c(c1)C(=O)c1cccc(O)c1C2=O)C(=O)OCC` (centres unmarked) [Example 4, diethyl(4,5-dihydroxy-9,10-dioxo-9,10-dihydroanthracene-2-carbonyl)aspartate] came in with a melting point of 174.7 to 175.2 °C. For the same molecule, in the series on HCC cells SNU398, the IC50 came out at 27.9 ± 3.45 µM and the “IC50 … (selectivity in words)” value is “much smaller than the IC50 on hepatocytes LO2”. Also, in the series on hepatocytes LO2, 117 µM corresponded to half-maximal inhibition (IC50).
Turning to `COC(=O)C(CC(C)C)NC(=O)c1cc(O)c2c(c1)C(=O)c1cccc(O)c1C2=O` (centres unmarked) [Comparative Example 1, methyl (4,5-dihydroxy-9,10-dioxo-9,10-dihydroanthracene-2-carbonyl)leucine], the melting point fell in the range of 175.1 to 176.3 °C. Besides, 25.9 ± 6.94 µM corresponded to half-maximal inhibition in the series on HCC cells SNU398 (IC50). This molecule also showed an IC50 in the series with hepatocytes LO2 of 0.81 ± 0.16 µM.
Take `CCOC(=O)N1CCN(C(=O)c2cc(O)c3c(c2)C(=O)c2cccc(O)c2C3=O)CC1` [Example 7]: the melting point lay within 222.2 to 222.8 °C. In the series on HCC cells SNU398, this molecule came in with an IC50 of 19 ± 1.96 µM. Further, in the series on hepatocytes LO2, inhibition was half-maximal at 26.3 ± 15.8 µM (IC50).
